According to patent publication US11007199B2, “Compositions and methods for ameliorating pain and reducing fever” (The Board of Supervisors of Louisiana State University and …, priority 2017, dated 2021):
“Also recorded” adds a separate entry of the source.

Tests used:
hepatocytes = test: Hepatotoxicity (LDH assay, GSH assay); type: cell-based; conditions: FIG. 6
Method: LDH assay. Using the Pierce LDH Cytotoxicity assay kit from Thermo Scientific, cells were incubated in presence of various drug compounds, followed by collection of the medium supernatant. Release of LDH was measured in 96 well plate formats. The absorbance was measured at 490 nm and 680 nm and the final result was absorbance observed at 680 nm subtracted from absorbance observed at 490 nm (A490nw-A680nm).
GSH assay. Using the ThiolTracker Violet Glutathione Detection reagent from Molecular Probes (Invitrogen), after hepatocytes were incubated in the presence of various compounds, incubation medium was removed, cells rinsed with D-PBS conditioned medium followed by incubation with pre-warmed ThiolTracker Violet dye (working solution prepared as per manufacturer's instructions) for 30 minutes. Fluorescence was measured at the following wavelengths: excitation (404 nm) and emission (526 nm). The finalized result was expressed as relative fluorescence units (RFU), which indicates the cellular level of reduced glutathione (GSH) in intact cells.
Hepatotoxicity results for the inventive DEA salt compound are shown m FIG. 6.

CD-1 male mice [1] = test: Acetic acid-induced abdominal writhing assay; type: in vivo
Method: Acetic acid-induced abdominal writhing assay. Contraction of the abdominal muscle and stretching of the hind limbs is induced as a response to intraperitoneal (ip) injection of an acetic acid solution, as described Hendershot and Forsaith, 1959. In this model of visceral pain, abdominal contractions (writhing) is induced in mice by an ip injection of 0.4% acetic acid at a dose of 10 mL/Kg, 25 min after drug administration. The number of writhes is counted for 10 min beginning 5 min after acetic acid injection.
All groups have been compared to vehicle and differences analyzed by one-way ANOVA followed by Sidak's multiple comparison post hoc test.

rats = test: Von Frey analgesia assay; conditions: in vivo analgesia model, FIG. 8; IP injection
Method: Von Frey analgesia assay. Twenty rats are brought into the eVF room and allowed to acclimate to the room for 30 minutes. At the 30 minute mark, saline injections begin. 30 minutes after the saline injection, the eVF readings of the rats are taken by applying the filament of the eVF machine to the center of the bottom of the hind paws (left and right) of each rat. The filament uses a magnet to remain attached to the probe, which measures the pressure in grams applied to the filament. The pressure readout is then recorded from the transducer.
After saline injections, a drug is injected (different compound each day). In the same manner as saline injections, at the 30 minute mark after each drug injection, eVF readings of each rat are taken.
Drug Injection/Concentration: All drugs and saline were administered by intraperitoneal (IP) injection. Each injection was 1 mL/kg of body weight (i.e., 463 g rat received 0.463 mL of injection). Four doses on a logarithmic scale for ApAP w ere used. 10 mg/kg, 32 mg/kg, 100 mg/kg, and 320 mg/kg.

CD-1 male mice [2] = test: Baker yeast-induced hyperthermia (antipyresis); type: in vivo; conditions: 50 mg/kg bw p.o., baker's yeast-induced fever, FIG. 5
Method: The antipyretic effect of the compounds was assessed utilizing baker yeast-induced hyperthermia. All animals (CD-1 male mice weighing between 45-50 g) were fasted overnight (with free access to water) and their baseline temperature was recorded using a Cole-[…] rectal thermometer probe. […] (206% […].); (Groups 5-6) DEA salt-Brewer's yeast soln. (20% w/v) (i.p.) and DEA Salt (50 mg/kg bw) (p.o.). Two hours post-injection, rectal temperatures were recorded once again, to determine total change in body temperature. Percentage Change in body temperature is calculated with the formula, Percentage Change=[(Total change in body temperature)/(Base temperature)*100]. Data is expressed as mean±SEM, n=10.

CD1 male mice = test: Tail-flick assay; conditions: in vivo analgesia model, FIG. 8; per os at 40 mg/kg
Method: Tail-flick assay. Analgesic effect of drugs was determined by using the reaction time (latency) of mice to thermal stimulation of the tail tip. All animals (CD1 male mice) were fasted overnight (with free access to water) and their baseline tail flick latency (seconds) was recorded twice for each mouse using an IITC Tail Flick Analgesia Meter.
After measurement of baseline latency, drugs were administered per os at 40 mg/kg to animals belonging to the treatment groups. At 30 minutes post injection, tail flick latency was recorded again, twice for each mouse, to determine total change in latency. Mice were subjected to cold shock by dipping their tails into ice-cold water at 4° C.
Percentage of maximum analgesia for each mouse were calculated with the formula, Percentage Analgesia=100*{[(Latency to tail flick after drug injection)−(Latency to tail flick at baseline)]/[(12 sec cutoff time)−(Baseline latency)]}. Data expressed as mean±SEM, n=10.

CCNCC.O=C(CNS(=O)(=O)c1ccccc1C(=O)O)Nc1ccc(O)cc1 [DEA salt, 2-[[2-(4-hydroxyanilino)-2-oxo-ethyl]sulfamoyl]benzoate diethylammonium salt] was tested, and the “hepatotoxicity versus ApAP” value (hepatocytes) was “minimal hepatotoxicity; also recorded: decreased toxicity”, the “calculated 50% effective dose (ED50) based on the writhing assay” value (CD-1 male mice [1]; CD-1 male mice, per os, ip 0.4% acetic acid) was 10.3 mg/kg and the “number of writhes induced by injection of acetic acid” value (CD-1 male mice [1]; FIG. 8, vehicle only nearly 40) was “under 20”. The “reducing pain versus ApAP, acetic acid-induced abdominal writhing” value (CD-1 male mice [1]; in vivo analgesia model, FIG. 8) was “comparable to ApAP in reducing pain”, the “reducing pain versus ApAP, Von Frey assay” value (rats) was “comparable to ApAP in reducing pain” and the “antipyretic effect versus ApAP” value (CD-1 male mice [2]) was “antipyretic effect comparable to ApAP”. The “reducing pain versus ApAP, tail flick assay” value (CD1 male mice) was “comparable to ApAP in reducing pain”.
